The results in this text go back to ChEMBL document CHEMBL1158263, “A New Prenylated Flavone from Artocarpus champeden” (J Nat Prod, 1996).

Each structure is given as a SMILES string. Values after ≈ are worked out from the molar mass of the structure shown.

The series is described as follows: Toxicity against Artemia salina. It counts as organism-based. Conditions: in vivo.

Broadly, the LC50 is the concentration that kills 50% of the test population. `CC(C)=CC1Oc2cc(O)c(O)cc2-c2oc3cc(O)cc(O)c3c(=O)c21` (stereo unspecified) [CYCLOCHAMPEDOL]: the median lethal concentration (LC50) was determined as 15.1 µg/mL (≈ 41 µM).
